How the values were obtained:
[1] = system: T3M4 tumor-bearing mice; experiment: Small-animal PET imaging of T3M4 xenografts (with aseptic inflammation, with and without β-D-lactose blocking); assay type: in vivo; details: for tumor uptake (PET ROI-derived): T3M4 tumor, 60 min post-injection
Procedure: (§1) All animal experiments were performed in adherence with the Peking Union Medical College Hospital (PUMCH) guidelines for the use of laboratory animals and were approved by PUMCH Clinical Center Animal Care and Use Committee. The pancreatic cancer tumor-bearing models were generated by subcutaneous injection of 5 × 10^6 human T3M4 pancreatic cancer cells (kindly supplied by Prof. Taiping Zhang from the Department of General Surgery, Peking Union Medical College Hospital) and SK-BR-3 breast cancer cells (kindly supplied by Prof. Wei Ge from Department of Immunology, Institute of Basic Medical Sciences), into the right shoulder of female athymic nude mice (Laboratory Animal Center of PUMCH). Tumor sizes were monitored with a vernier caliper. When the tumor reached approximately 3-5 mm in diameter, T3M4 tumor-bearing mice were intramuscularly injected with 0.2 mL turpentine into the left hind leg muscle. After 72 h, those tumor-bearing mice with a visible mass in left thigh muscle, were selected and used as models with aseptic inflammation.
(§2) In vivo PET imaging was performed using a small-animal PET scanner Inveon (Siemens Medical systems, USA). […] Mice were anesthetized with isoflurane and placed on a heated pad (to provide the animal with warmth throughout the scanning). PET images were acquired at 30, 60, 90 and 120 min post-injection. After the acquisition, region of interests (ROIs), including tumor, muscle, brain and kidney were drawn over major organs on decay-corrected whole-body coronal images using Inveon Research Workplace 4.1 software. Radioactivity concentration of organs was obtained from the mean pixel values within the multiple ROI volume, and converted into MBq/mL using a conversion factor. Assuming the density of tissue was 1 g/cm^3, the ROIs were converted to MBq/g and then divided by the administered activity, to obtain an imaging ROI-derived %ID/g.

[2] = system: SK-BR-3 tumor-bearing mice; experiment: Small-animal PET imaging of SK-BR-3 xenografts; assay type: in vivo
Procedure: as §1, §2

[3] = system: T3M4 tumor-bearing nude mice; experiment: In vivo biodistribution; details: n = 5
Procedure: All animal experiments were performed in adherence with the Peking Union Medical College Hospital (PUMCH) guidelines for the use of laboratory animals and were approved by PUMCH Clinical Center Animal Care and Use Committee. […] Zhang from the Department of General Surgery, Peking Union Medical College Hospital) and SK-BR-3 breast cancer cells (kindly supplied by Prof. Wei Ge from Department of Immunology, Institute of Basic Medical Sciences), into the right shoulder of female athymic nude mice (Laboratory Animal Center of PUMCH). Tumor sizes were monitored with a vernier caliper. […] After 72 h, those tumor-bearing mice with a visible mass in left thigh muscle, were selected and used as models with aseptic inflammation. […] At 5 min, 30 min, 60 min and 120 min after injection, mice were sacrificed by humane euthanasia - cervical dislocation. Blood was obtained through the eyeball, and tissues and organs of interests (brain, heart, lung, liver, pancreas, kidney, spleen, intestine, muscle, stomach, bone and tumor) were then weighed and counted. All measurements were background-subtracted and decay-corrected to the time of killing and then averaged. Radioactivity values were calculated and presented as the percentage injected dose per gram (%ID/g) of tissue.

[4] = Octanol-water partition coefficient determination; assay type: physicochemical; details: n-octanol / PBS pH 7.4
Procedure: After vortexing for 10 min, the tube was centrifuged (8000 rpm, 3 min) for layer separation. An aliquot of the aqueous and n-octanol layers was collected and measured by a γ-counter.

[5] = Procedure: Urine and blood samples were collected at 15 min post-injection and blood was centrifuged (8000 rpm, 10 min) to separate out the plasma. Urine and plasma samples were analyzed by radio-TLC, as above.
[6] = In vitro stability in fetal bovine serum; assay type: in vitro ADME; details: 37 °C, 120 min
[7] = SK-BR-3 xenografts, 60 min post-injection
[8] = 15 min after intravenous injection, radio-TLC

OC[C@H]1O[C@@H](O[C@H]2[C@H](O)[C@@H](O)[C@H](OCC[18F])O[C@@H]2CO)[C@H](O)[C@@H](O)[C@H]1O [^18F-FEL, 1'-^18F-fluoroethyl-β-D-lactose]
accumulation in inflammatory tissue ([1]; T3M4-inflammation mice, 60 min after injection, PET): non-accumulation in inflammatory tissue
tumor uptake (PET ROI-derived) ([1]; co-injection of β-D-lactose (15 mg/kg)): 2.36 ± 0.11 %ID/g
tumor uptake (PET ROI-derived) ([1]; no blocking): 10.7 ± 1.01 %ID/g
reduction of specific tumor accumulation in PET competition assay ([1]; co-injection of β-D-lactose): approximately 80%
radioactivity uptake in SK-BR-3 tumor ([2]; SK-BR-3 breast tumor-bearing mice with no HIP/PAP expression, PET): low
uptake ratio of tumor-to-blood [2, 7]: 0.37 ± 0.01
uptake ratio of tumor-to-liver [2, 7]: 0.54 ± 0.01
uptake ratio of tumor-to-muscle [2, 7]: 1.37 ± 0.05
Biodistribution, Blood ([3]; 5 min after injection): 9.58 ± 0.51 %ID/g
Biodistribution, Bone ([3]; 5 min after injection): 1.34 ± 0.23 %ID/g
Biodistribution, Brain ([3]; 5 min after injection): 0.67 ± 0.23 %ID/g
Biodistribution, Heart ([3]; 5 min after injection): 3.81 ± 0.62 %ID/g
Biodistribution, Intestine ([3]; 5 min after injection): 2.57 ± 0.30 %ID/g
Biodistribution, Kidney ([3]; 5 min after injection): 19.4 ± 4.76 %ID/g
Biodistribution, Liver ([3]; 5 min after injection): 2.12 ± 0.21 %ID/g
Biodistribution, Lung ([3]; 5 min after injection): 2.29 ± 0.35 %ID/g
Biodistribution, Muscle ([3]; 5 min after injection): 2.50 ± 0.15 %ID/g
Biodistribution, Pancreas ([3]; 5 min after injection): 2.90 ± 1.28 %ID/g
Biodistribution, Spleen ([3]; 5 min after injection): 1.89 ± 0.62 %ID/g
Biodistribution, Stomach ([3]; 5 min after injection): 3.60 ± 0.64 %ID/g
Biodistribution, Tumor ([3]; 5 min after injection): 6.67 ± 0.42 %ID/g
Biodistribution, Blood ([3]; 30 min after injection): 2.31 ± 0.67 %ID/g
Biodistribution, Bone ([3]; 30 min after injection): 0.60 ± 0.26 %ID/g
Biodistribution, Brain ([3]; 30 min after injection): 0.16 ± 0.04 %ID/g
Biodistribution, Heart ([3]; 30 min after injection): 0.88 ± 0.25 %ID/g
Biodistribution, Intestine ([3]; 30 min after injection): 0.94 ± 0.16 %ID/g
Biodistribution, Kidney ([3]; 30 min after injection): 9.59 ± 1.80 %ID/g
Biodistribution, Liver ([3]; 30 min after injection): 1.36 ± 0.07 %ID/g
Biodistribution, Lung ([3]; 30 min after injection): 1.91 ± 0.42 %ID/g
Biodistribution, Muscle ([3]; 30 min after injection): 0.91 ± 0.12 %ID/g
Biodistribution, Pancreas ([3]; 30 min after injection): 0.69 ± 0.33 %ID/g
Biodistribution, Spleen ([3]; 30 min after injection): 0.77 ± 0.19 %ID/g
Biodistribution, Stomach ([3]; 30 min after injection): 1.03 ± 0.33 %ID/g
Biodistribution, Tumor ([3]; 30 min after injection): 3.24 ± 0.11 %ID/g
Biodistribution, Blood ([3]; 60 min after injection): 0.87 ± 0.31 %ID/g
Biodistribution, Bone ([3]; 60 min after injection): 0.31 ± 0.02 %ID/g
Biodistribution, Brain ([3]; 60 min after injection): 0.10 ± 0.02 %ID/g
Biodistribution, Heart ([3]; 60 min after injection): 0.38 ± 0.10 %ID/g
Biodistribution, Intestine ([3]; 60 min after injection): 0.56 ± 0.35 %ID/g
Biodistribution, Kidney ([3]; 60 min after injection): 4.35 ± 1.53 %ID/g
Biodistribution, Liver ([3]; 60 min after injection): 0.83 ± 0.23 %ID/g
Biodistribution, Lung ([3]; 60 min after injection): 0.71 ± 0.37 %ID/g
Biodistribution, Muscle ([3]; 60 min after injection): 0.77 ± 0.30 %ID/g
Biodistribution, Pancreas ([3]; 60 min after injection): 0.63 ± 0.34 %ID/g
Biodistribution, Spleen ([3]; 60 min after injection): 0.56 ± 0.30 %ID/g
Biodistribution, Stomach ([3]; 60 min after injection): 0.82 ± 0.61 %ID/g
Biodistribution, Tumor ([3]; 60 min after injection): 1.03 ± 0.09 %ID/g
Biodistribution, Blood ([3]; 120 min after injection): 0.29 ± 0.12 %ID/g
Biodistribution, Bone ([3]; 120 min after injection): 0.12 ± 0.02 %ID/g
Biodistribution, Brain ([3]; 120 min after injection): 0.06 ± 0.03 %ID/g
Biodistribution, Heart ([3]; 120 min after injection): 0.20 ± 0.04 %ID/g
Biodistribution, Intestine ([3]; 120 min after injection): 0.20 ± 0.07 %ID/g
Biodistribution, Kidney ([3]; 120 min after injection): 2.08 ± 0.74 %ID/g
Biodistribution, Liver ([3]; 120 min after injection): 0.59 ± 0.09 %ID/g
Biodistribution, Lung ([3]; 120 min after injection): 0.38 ± 0.11 %ID/g
Biodistribution, Muscle ([3]; 120 min after injection): 0.15 ± 0.07 %ID/g
Biodistribution, Pancreas ([3]; 120 min after injection): 0.29 ± 0.07 %ID/g
Biodistribution, Spleen ([3]; 120 min after injection): 0.30 ± 0.17 %ID/g
Biodistribution, Stomach ([3]; 120 min after injection): 0.24 ± 0.17 %ID/g
Biodistribution, Tumor ([3]; 120 min after injection): 0.65 ± 0.12 %ID/g
log P [4]: −2.62 ± 0.12
percentage of intact probe in plasma [5, 8]: no less than 94%
percentage of intact probe in urine [5, 8]: no less than 94%
dehalogenation in vivo ([5]; plasma and urine 15 min after intravenous injection, supported by low bone uptake): Almost no dehalogenation was detected
intact ^18F-FEL in fetal bovine serum [6]: greater than 95%

Reference: publication PMC5650409 (Oncotarget, 2017)
